pEC50: −log10 of the molar value. Read-outs that look alike come from different tables or passages of the source.
Columns and labels:
HSV-1 = experiment: Anti-HSV-1 replication assay in Vero cells, titers by plaque assay; type: cell-based, herpes simplex virus 1; conditions: Human alphaherpesvirus 1, Vero; for log reduction at 5 µM / log reduction at 50 µM: 24 h; for log reduction at 5 µM: read-out: HSV-1 Log suppression 5 μM; for log reduction at 50 µM: read-out: HSV-1 Log suppression 50 μM; for log reduction at 1.5 µM: read-out: HSV-1 Log suppression 1.5 μM
Procedure: Vero cells were maintained in Dulbecco's modified Eagle's medium (DMEM) containing 3% newborn calf serum, 3% bovine growth serum, 2 mM L-glutamine and 100 IU/mL penicillin and 0.1 mg/mL streptomycin (P/S). HSV-1 #6 and HSV-2 #1 are de-identified clinical isolates from the Saint Louis University Hospital. Stocks were prepared after a single passage in cell culture and were titered by standard plaque assay (Knipe and Spang, 1982). Wild-type HSV-2 used in FIG. 3 was laboratory strain 333. […] Virus stocks were grown and titered on Vero cells (Morrison and Knipe, 1996).
(§1) Compounds to be screened were diluted in PBS supplemented to contain 2% newborn calf serum and 1% glutamine, and added in 100 μL volume to confluent cell monolayers in 24-well cluster plates. Immediately thereafter HSV-1 and HSV-2, diluted in the supplemented PBS medium, were added to the wells in 50 μl volume such that the final concentration of compound was 50 μM and 5 μM and the multiplicity of infection was 0.1. The plates were incubated at 37° C. for 1 hour and then virus-containing inoculum was removed and the wells were washed once in PBS. Compounds, diluted to 50 μM and 5 μM in DMEM supplemented to contain 2% newborn calf serum and 1% each penicillin/streptomycin, were added at 0.5 mL/well. Plates were incubated at 37° C. an additional 23 hr, and then the plates were visually inspected through a phase contrast microscope for cytopathic effect, and for toxic effect. […] The entire contents of each well were collected by scraping. Samples were frozen at −80° C., and then subsequently thawed, sonicated, and infectious virus titer was determined by standard plaque assay on Vero cell monolayers. Because the compounds were dissolved at 10 mM in 100% DMSO, equivalent dilutions of DMSO were added to additional wells as a control for effects of the diluent. Each experiment was repeated once. EC50 values were determined as above except that serial dilutions of the compound to be tested were prepared starting at 50 μM. The inhibitory values were calculated by non-linear curve-fitting in GraphPad Prism.

HSV-2 = experiment: Anti-HSV-2 replication assay in Vero cells, titers by plaque assay; type: cell-based, herpes simplex virus 2; conditions: Human alphaherpesvirus 2, Vero, 24 h; for log reduction at 5 µM: read-out: HSV-2 Log suppression 5 μM; for log reduction at 50 µM: read-out: HSV-2 Log suppression 50 μM
[1] = Quantitative Vero cell toxicity (MTT); type: cell-based; conditions: African green monkey, Vero cells
Procedure: (§2) Qualitative assessments of cytotoxicity were done visually by inspecting the cells in the primary screening assays. For the quantitative assays, cells were plated in 96-well plates at 1.0×10^4 per well. The next day the compounds were added at 0.78 to 100 μM in a final concentration of 1% (v/v) DMSO, and the cells were incubated for 24 hours under conditions identical to those employed for the viral replication inhibition assays. Mitochondrial toxicity was measured by incubating the cells with 0.25 mg/mL thiazolyl blue tetrazolium bromide (MTT, Sigma Aldrich Chemical Co.), the cultures were incubated for 60 min, metabolites were solubilized in acidic isopropanol, and absorbance was read at 570 nm. CC50 values were calculated by non-linear curve fitting using GraphPad Prism.
Quantitative toxicity measurements were conducted for all compounds that suppressed HSV replication by >2 log10 at 5 μM plus a number of compounds with lesser inhibitory activity for comparison. Toxicity was assessed by […]. Cells were plated in 96-well plates at 1.0×10^4 per well. The next day compound was added in concentrations ranging from 0.78 to 100 μM in a final concentration of 1% (v/v) DMSO. The cells were incubated for 24 h under conditions identical to those employed for the viral replication inhibition assays, and then mitochondrial activity was measured with the MTT assay (Sigma Aldrich) according to the manufacturer's instructions. Percent viability was determined for each compound concentration from the […], and then 50% cytotoxic concentrations (CC50) values were calculated by non-linear curve fitting using GraphPad Prism. Consistent with the subjective assessments of toxicity, all compounds selected for quantitative toxicity assessment had CC50 values≥50 μM under these conditions (Table 1).

HBV = HBV replication assay in HepDES19 cells; type: cell-based; conditions: Hepatitis B virus
Procedure: HBV replication assay. Inhibition of HBV replication was measured in HepDES19 cells as previously described (Cai, et al., 2014). Cells were seeded into 6-well plates and incubated in DMEM/F12, 10% fetal bovine serum (FBS), 1% penicillin/streptomycin (P/S) with 1 μg/ml tetracycline. Tetracycline was withdrawn after 24 hours. The test compound was applied to duplicate wells 48 hours later in medium containing a final DMSO concentration of 1%, and medium containing the compound was refreshed daily for the following two days. Cells were harvested and non-encapsidated nucleic acids were digested with micrococcal nuclease (New England Biolabs). HBV DNA was purified from capsids using QIAamp Cador Pathogen Mini Kit (Qiagen) with proteinase K incubation overnight at 37° C. TaqMan PCR was performed for 40 cycles at an annealing temperature of 60° C. Primers and probe (IDT Inc.) for the plus-polarity strand were: 5′[…]3′ (SEQ ID NO: 1); 5′[…]3′ (SEQ ID NO: 2); 5′/56-FAM/[…]/ZEN/[…]/3IABkFQ (SEQ ID NO: 3). Primers and probe for the minus-polarity strand were: 5′[…]3′ (SEQ ID NO: 4); 5′[…]3′ (SEQ ID NO: 5); 5′/56-FAM/[…]/ZEN/[…]/3IABkFQ (SEQ ID NO: 6).

[2] = Cytotoxicity reported with the HBV assay (Table 4); type: cell-based; conditions: human, hepatoma cells; read-out: CC50 (HBV assay table)
Procedure: as §2

HSV = experiment: Anti-HSV SAR summary, HSV type not separated; type: cell-based, herpes simplex virus; conditions: grouped by activity at 50, 5 and 0.5 μM
Procedure: as §1
A series of over 20 synthetic αHTs were synthesized and tested to both confirm the initial SAR, and to provide leads for further optimization pursuits (FIG. 5). […] Specifically, biphenyl-containing molecules #118 and 115 inhibit HSV replication by up to 4 log10 at 200 nM. The increased potency over close analogs #111 and 113 confirmed the importance of added lipophilicity.

[3] = Mouse liver microsome assay; type: in vitro ADME; conditions: 1 μM in mouse liver microsomes
Procedure: Microsomal incubations are run at a final P450 concentration of 0.25 μM. The microsomal mixture is composed of 0.1M potassium phosphate containing 3.3 mM MgCl and 1 μM compound (final concentration). The mixture is prewarmed for 5 min at 37° C. To initiate the reaction a 12 mM stock of NAPDH (1.2 mM, final concentration) is added to the warmed microsomal mixture and aliquots are removed at 0, 5, 10, 20 and 30 min. Samples are quenched with ice cold acetonitrile containing internal standard and either 1.8 mM EDTA or EGTA (final concentration). Samples are vortexed and spun down at 3200 rpm for 5 min. The supernant is transferred to 96-deep well plates and run on LC/MS/MS.

[4] = HepDES19 cells, read-out: EC50 (HBV assay)

Compound | log reduction at 5 µM (HSV-1) | log reduction at 50 µM (HSV-1) | log reduction at 5 µM (HSV-2) | log reduction at 50 µM (HSV-2) | CC50 at 24 h [1] [µM] | log reduction at 1.5 µM (HSV-1) | pEC50 (HBV; [4]) | CC50 at 24 h [2] [µM] | anti-HSV SAR group, in words (HSV) | Non-P450 turn-over [3] | half-life at 1 μM ([3]; read-out: t ½) [min] | ER ([3]; extraction ratio) | pEC50 (HBV; HepDES19, read-out: EC50 (HBV assay))
Cc1cc(O)c(=O)c(O)cc1-c1ccc(C(F)(F)F)cc1 [Compound 145] | 3.96 | 3.97 | 4.05 | 4.33 | > 100 |  |  |  |  |  |  |  | 
Cc1cc(O)c(=O)c(O)cc1C(=O)c1ccc(-c2ccc3ccccc3c2)cc1 [Compound 258] |  |  |  |  |  | 5.04 | 5.06 | 28 |  |  |  |  | 
Cc1cc(O)c(=O)c(O)cc1-c1ccc(-c2cccc3ccccc23)cc1 [Compound 235] |  |  |  |  |  |  | 5.28 | 30 |  |  |  |  | 
Cc1cc(O)c(=O)c(O)cc1C(=O)c1cccc(-c2cccc3ccccc23)c1 [Compound 257] |  |  |  |  |  | 4.82 | 5.08 | 32 |  |  |  |  | 
COCc1cc(O)c(=O)c(O)c(C(=O)OC)c1C(=O)OC [Compound 108] | 0 |  | 0 |  |  |  |  | 81 | weakest inhibitors |  |  |  | 
Cc1cc(O)c(=O)c(O)cc1-c1ccc2ccccc2c1 [Compound 147] | 5.92 | 5.81 | 4.33 | 4.12 | 74.8 |  |  |  |  | No | > 120 | <0.1 | 
Cc1cc(O)c(=O)c(O)cc1-c1cccc(-c2ccc3ccccc3c2)c1 [Compound 232] |  |  |  |  |  |  | 5.02 | 55 |  |  |  |  | 
Cc1cc(O)c(=O)c(O)cc1-c1cccc(-c2ccccc2)c1 [Compound 231] |  |  |  |  |  |  | 5.00 | 16 |  |  |  |  | 
CCOC(=O)c1cc(O)c(=O)c(O)cc1C [Compound 109] | 0.21 | 3.99 | -0.22 | 4.15 |  |  |  |  | weakest inhibitors |  |  |  | 
Cc1cc(O)c(=O)c(O)cc1-c1ccc(Br)cc1 [Compound 114] | 4.8 | 4.75 | 3.92 | 5.26 | > 100 |  |  |  |  |  |  |  | 
Cc1cc(O)c(=O)c(O)cc1-c1ccc([N+](=O)[O-])cc1 [Compound 112] | 0.02 | 5.25 | -0.4 | 3.2 |  |  | 5.60 |  | weakest inhibitors |  |  |  | 
Cc1cc(O)c(=O)c(O)cc1C(=O)c1cccc(-c2ccc3ccccc3c2)c1 [Compound 259] |  |  |  |  |  | 5.05 | 5.55 | 21 |  |  |  |  | 
Cc1cc(O)c(=O)c(O)cc1-c1ccccc1 [Compound 113] | 2.27 | 5.38 | 2.07 | 5.61 | > 100 |  | 5.38 |  |  |  |  |  | 
Cc1cc(O)c(=O)c(O)cc1C(=O)CC1CCCCC1 [Compound 173] | 5.91 | 5.8 | 5.32 | 5.94 | > 100 |  | 5.17 | 22 | fully inhibitory at 5 μM |  |  |  | 
COC(=O)c1c(C)cc(O)c(=O)c(O)c1C(=O)OC [Compound 106] | -0.07 | 4.11 | -0.55 | 2.87 |  |  | 5.57 |  | weakest inhibitors |  |  |  | 
O=c1c(O)ccccc1O [Compound 172] | 3.31 | 4.11 | 1.8 | 4.64 | > 100 |  |  | > 100 | moderate inhibitors |  |  |  | 5.68
Cc1cc(O)c(=O)c(O)cc1-c1cccc(Br)c1 [Compound 119] | 5.19 | 5.28 | 5.02 | 4.88 | 72.4 |  | 5.19 | 81 |  |  |  |  | 
Cc1cc(O)c(=O)c(O)cc1-c1ccc(Cl)cc1 [Compound 144] | -0.34 | 3.83 | 0.65 | 5.18 |  |  |  |  | weakest inhibitors |  |  |  | 

From patent US11420922B2, “Hydroxylated tropolone inhibitors of nucleotidyl transferases in herpesvirus and Hepatitis B and uses therefor” (Saint Louis University, priority 2015, dated 2022)
